# Patent US20240374749A1, “ANTIBODY-EXATECAN CONJUGATES” (Glykos Finland Oy, priority 2023, published 2024)
# Read-outs that look alike come from different tables or passages of the source.
# Assays:
# [1] = tested on: HER2+ JIMT-1 breast cancer cells; test: In vitro cytotoxicity assay (PrestoBlue), Example 9 (FIG. 7); type: cell-based; conditions: Homo sapiens
# Procedure: (§1) HER2+ SK-BR-3 breast cancer cells (ATCC), HCC1954 breast cancer cells (CRL-2338, ATCC), JIMT-1 breast cancer cells (DSMZ) and SKOV-3 ovarian cancer cells (ATCC) were cultured essentially according to the providers' instructions. After incubation with ADCs, cell viability was determined using PrestoBlue reaction using manufacturer's instructions. Cell viability data data was transferred to GraphPad Prism to determine IC50 values. Exatecan (mesylate salt) and DXd (free deruxtecan payload) were purchased from MedChemExpress.
# [2] = tested on: HER2+ SKOV-3 ovarian cancer cells; test: In vitro cytotoxicity assay (PrestoBlue), Example 9 (FIG. 8); type: cell-based; conditions: Homo sapiens, SK-OV-3
# Procedure: as §1
# [3] = tested on: HER2+ SK-BR-3 breast cancer cells; test: In vitro cytotoxicity assay (PrestoBlue), Example 9 (FIG. 5); type: cell-based; conditions: Homo sapiens
# Procedure: as §1
# [4] = tested on: HER2+ HCC1954 breast cancer cells; test: In vitro cytotoxicity assay (PrestoBlue), Example 9 (FIG. 6); type: cell-based; conditions: Homo sapiens
# Procedure: as §1
# MOLM-13 cells = test: MOLM-13 xenograft model; conditions: for signs of toxicity: single i.v. dose, clinical signs and general behavior
# Procedure: The study was performed at the TCDM, University of Turku, Finland, according to the appropriate ethical committee approval. Cells for inoculation to mice were prepared in vigorous exponential growth phase. 2 million MOLM-13 cells in 50% Matrigel were inoculated s.c. to the flank of each mouse (female athymic nude mice between 8-10 weeks of age). Clinical signs and general behavior of the animals were observed regularly. […] Tumor growth was followed by palpation. After caliper measurement, tumor volume was calculated according to 0.5×length×width^2. […] Mice were evenly divided into study groups, 6 mice in each group, so that each group received similar distribution of different-sized tumors and the average tumor volumes were similar in each group. Intravenous (i.v.) treatment in PBS was given once on day 1 of treatment as a single dose regimen (on day 8 after tumor inoculation). The experiment lasted to day 46 after treatment (day 54 after tumor inoculation).
# [5] = Maleimide self-stabilization in storage formulation; type: physicochemical; conditions: storage formulation of PBS pH 7.4
# [6] = Hydrophobic interaction chromatography (HIC-HPLC) of flanvotumab ADCs; type: physicochemical; conditions: closer to naked antibody = more hydrophilic
# From the text: Flanvotumab-deruxtecan ADC was generated essentially similarly as FLExM above using deruxtecan linker-payload (DxM, MedChemExpress, Sweden; Scheme 1.4).
# HIC-HPLC analysis using TSKgel ButylNPR column was done with Äkta HPLC purifier system.
# [7] = Aggregation status by size-exclusion chromatography (SEC-HPLC); type: physicochemical
# Procedure: Aggregation status of FLExM01 was evaluated by size-exclusion chromatography (SEC-HPLC; FIG. 2A), showing very low aggregation with high-molecular weight aggregate level of 1.6%. Drug-to-Antibody Ratio (DAR) was determined by reversed-phase chromatography (RP-HPLC; FIG. 2B), showing homogeneous conjugation to DAR=8.
# SK-MEL-30 melanoma cells = test: SK-MEL-30 human melanoma xenograft model; type: in vivo, athymic mice; conditions: single i.v. 10 mg/kg dose
# Procedure: SK-MEL-30 human melanoma xenograft model (FIG. 4A): The animal model were performed at the University of Helsinki, Finland, according to the appropriate ethical committee approval. SK-MEL-30 melanoma cells, 2 million cells/mouse, were inoculated subcutaneously (s.c.) to athymic mice.
# [8] = single i.v. 10 mg/kg dose, day 54 after inoculation
molecule,measurement,setting,value
"CC[C@@]1(O)C(=O)OCc2c1cc1n(c2=O)Cc2c-1nc1cc(F)c(C)c3c1c2[C@@H](NC(=O)CO)CC3 [DXd, 2-hydroxyacetoyl exatecan]",IC50,[1],18 nM
same,IC50,[2],9.5 nM
same,IC50,[3],4.3 nM
same,IC50,[4]; HCC1954,5 to 8 nM
"CC[C@@]1(O)C(=O)OCc2c1cc1n(c2=O)Cc2c-1nc1cc(F)c(C)c3c1c2[C@@H](N)CC3 [exatecan, Exatecan]",IC50,[1],3.1 nM
same,IC50,[2],4.7 nM
same,IC50,[3],0.87 nM
same,IC50,"[4]; HCC1954 cells, FIG. 6, read-out: IC50",5 to 8 nM
"LNDxM: lintuzumab-deruxtecan ADC DAR=8, maleimides not stabilized; 01-03 are batches [reference compound]","deaths due to tumor growth, %",MOLM-13 cells; single i.v. 10 mg/kg dose,17%
same,tumor-free mice at the end of the study (mice out of 6),MOLM-13 cells; [8],2/6
same,"tumor-free mice at the end of the study, %",MOLM-13 cells; [8],33%
same,deaths due to tumor growth (mice out of 6),"MOLM-13 cells; single i.v. 10 mg/kg dose, death on day 47 after tumor inoculation",⅙
same,signs of toxicity,MOLM-13 cells,No signs of toxicity were recorded
Lintuzumab: humanized recombinant antibody produced in CHO cells; anti-CD33,tumor growth inhibition (in words),"MOLM-13 cells; single i.v. 10 mg/kg dose, s.c. tumors about 120 mm^3",only slight inhibitory activity to tumor growth
same,signs of toxicity,MOLM-13 cells,No signs of toxicity were recorded
"FLExM01: flanvotumab-exatecan ADC with ExM linker-payload, DAR≈8 (conjugate, chains of the INN, looked up, exatecan ExM linker-payload, DAR 8) VH: QVQLVQSGSELKKPGASVKISCKASGYTFTSYAMNWVRQAPGQGLESMGWINTNTGNPTYAQGFTGRFVFSMDTSVSTAYLQISSLKAEDTAIYYCAPRYSSSWYLDYWGQGTLVTVSS VL: EIVLTQSPATLSLSPGERATLSCRASQSVSSYLAWYQQKPGQAPRLLIYDASNRATGIPARFSGSGSGTDFTLTISSLEPEDFAVYYCQQRSNWLMYTFGQGTKLEIK",maleimide self-stabilization (in words),[5],self-stabilized by maleimide hydrolysis
same,HIC-HPLC elution volume,[6],6.5 mL
same,high-molecular weight aggregate level,[7]; SEC-HPLC,1.6%
same,toxicities observed,SK-MEL-30 melanoma cells,No toxicities were observed
same,tumor growth inhibition (in words),SK-MEL-30 melanoma cells; s.c. tumors about 200 mm^3,inhibited markedly more in the ADC-treated mice than either the antibody-treated or non-treated mice
"FLDxM01: Flanvotumab-deruxtecan ADC, DAR≈8 (conjugate, chains of the INN, looked up, deruxtecan, DAR 8) VH: QVQLVQSGSELKKPGASVKISCKASGYTFTSYAMNWVRQAPGQGLESMGWINTNTGNPTYAQGFTGRFVFSMDTSVSTAYLQISSLKAEDTAIYYCAPRYSSSWYLDYWGQGTLVTVSS VL: EIVLTQSPATLSLSPGERATLSCRASQSVSSYLAWYQQKPGQAPRLLIYDASNRATGIPARFSGSGSGTDFTLTISSLEPEDFAVYYCQQRSNWLMYTFGQGTKLEIK",HIC-HPLC elution volume,[6],7.8 mL
same,aggregates (in words),"[7]; MALDI-TOF MS, SEC-HPLC and RP-HPLC",low aggregates
"Flanvotumab: naked antibody, parent of the anti-TYRP-1 ADC (antibody, chains of the INN, looked up, V domains shown) VH: QVQLVQSGSELKKPGASVKISCKASGYTFTSYAMNWVRQAPGQGLESMGWINTNTGNPTYAQGFTGRFVFSMDTSVSTAYLQISSLKAEDTAIYYCAPRYSSSWYLDYWGQGTLVTVSS VL: EIVLTQSPATLSLSPGERATLSCRASQSVSSYLAWYQQKPGQAPRLLIYDASNRATGIPARFSGSGSGTDFTLTISSLEPEDFAVYYCQQRSNWLMYTFGQGTKLEIK",toxicities observed,SK-MEL-30 melanoma cells,No toxicities were observed
